Holding throughout (assay type): cell-based, human
The test system of series [1] is liver organoids. Kind of series: Bilirubin assay measuring unconjugated and conjugated bilirubin in liver organoids. Particulars: liver organoids in 10 mg/L bilirubin; drug 1 or 5 μM (FIG. 4B, 4D). Here is the method:
Bilirubin levels were measured by collecting the supernatant from HLOs treated with bilirubin and serum from rats. The supernatant and serum were assayed with Bilirubin Assay Kit (Total and Direct, Colorimetric) (abcam) and Bilirubin Assay Kit (Sigma-Aldrich) according to manufacturer instructions.

For another series, the system named is UGT1A1. Kind of series: RT-qPCR of UGT1A1 in liver organoids. Conditions: 10 mg/L bilirubin plus drug vs 10 mg/L bilirubin alone (FIG. 4E). The method, then:
(§1) On day 27, the mature organoids were treated with bilirubin (1-10 mg/L), doxycycline (100 ng/mL; added 3 days prior to activate gene expression) and/or additionally with drugs such as hydrocortisone, dexamethasone, ketoconazole and mifepristone (1-2 μM for each) for 5 days and then harvested for downstream assays. Bilirubin assay was performed using a colorimetric kit (ab235627 from Abcam). RNA was isolated using the RNeasy mini kit (Qiagen, Hilden, Germany). Reverse transcription was carried out using the High-Capacity cDNA Reverse Transcription Kit (Thermo Fisher Scientific Inc.) according to manufacturer's protocol. qPCR was carried out using TaqMan gene expression master mix (Applied Biosystems) on a QuantStudio 5 Real-Time PCR System (Thermo Fisher Scientific Inc.). All primers and probe information for each target gene was obtained from the Universal ProbeLibrary Assay Design Center (available on the World Wide Web at lifescience.roche.com/en_us/brands/universal-probe-library.html). Images were captured on the KEYENCE BZ-X710 Fluorescence Microscope (Keyence).

The subject of another series is NRF2. Kind of series: RT-qPCR of NRF2 in liver organoids. Conditions: 10 mg/L bilirubin plus drug vs 10 mg/L bilirubin alone (FIG. 4E). The method, then: as §1
In series [2] the test system is liver organoids. Kind of series: RNA sequencing of HLOs. Particulars: 10 mg/L bilirubin and 1 μM mifepristone vs control (FIG. 4F). Here is the method: RNA was isolated using the RNeasy mini kit (Qiagen). […] All the samples were amplified with TaqMan Gene Expression Assays and normalized with 18S rRNA Endogenous Control. For RNA sequencing, the extracted RNA quality was evaluated with an Agilent 2100 Bioanalyzer (Agilent). A sequence library was prepared using a TruSeq Stranded mRNA kit (Illumina) and sequenced using NovaSeq 6000 (Illumina). Reads were aligned to human genome assembly hg38 and quantified using the quasi-mapper Salmon (v1.8.0). Gene-expression analysis was performed using the R Bioconductor package DESeq2 (v1.36.0). The read count matrix was normalized by size factors, and a variance stabilizing transformation (VST) was applied to the normalized expression data. The data was visualized using clusterProfiler (v.4.4.1) and pheatmap (v1.0.12) packages. […] RNA sequencing parameters were 150 bp paired-end sequencing at a depth of 20M reads per samples. Fastq read files for each sample were obtained and then aligned using Salmon, a quasi-mapping tool that aligns and quantifies transcripts using RNA-seq data. Raw transcript counts and normalized transcripts per million (TPM) values were obtained and analyzed for differential expression with DESeq2. […]

A further series deals with UGT1A1 gene. Kind of series: ChIP-PCR and ChIP-qPCR of hyperbilirubinemic organoids. Conditions: 10 mg/L bilirubin, 1 μM drug (FIG. 4H).
The subject of the next series is CNS HLOs. Kind of series: Bilirubin toxicity in Crigler-Najjar syndrome liver organoids (brightfield). Particulars: 10 mg/L bilirubin, inactive UGT1A1 gene (FIG. 3H).
Another series deals with CYP1A2. Kind of series: CYP1A2 activity assay (P450-Glo) after omeprazole. The method, then:
(§2) CYP3A4 and CYP1A2 assays were performed by harvesting HLOs, washing in PBS, plating them into a 96 well assay plate, and treating them with rifampicin and omeprazole, respectively, for 24 hours. The assays were then performed using P450-Glo CYP3A4 and CYP1A2 Assay (Promega) and normalized using CellTiter-Glo Luminescent Cell Viability Assay according to manufacturer instructions.

Series [3] relates to liver organoids. Kind of series: Hyperbilirubinemia induction: HLOs treated with varying bilirubin concentrations (brightfield). Conditions: bilirubin 1, 2, 5 or 10 mg/L, 1 and 4 days (FIG. 3B). Here is the method: as §1
For series [4], the system named is liver organoids. Kind of series: Immunofluorescence of mature liver enzymes and transport proteins. Particulars: 1 mg/L bilirubin (FIGS. 1F-H). The method, then: For maturation induction in HLOs, the day 15 organoids were fed with complete HCM with supplements in addition to low dose bilirubin (1 mg/L). This treatment was continued until day 30 when the organoids were harvested. […] For whole mount immunostains, the organoids were fixed in 4% PFA, permeabilized with 0.1% PBST, blocked with 5% Normal Donkey Serum in 0.1% PBST, and stained with the appropriate primary and secondary antibodies. The images were captured on the Nikon A1 inverted confocal microscope.

The test system of the next series is CYP3A4. Kind of series: CYP3A4 activity assay (P450-Glo) after rifampicin. The method, then: as §2
The subject of another series is mGULO organoids. Kind of series: Survival and morphology of mGULO organoids with doxycycline induction. Particulars: Dox 10, 100, 1000 ng/mL, with bilirubin (FIG. 2O).

“Also recorded” adds a separate entry of the source.

Procedure for CNS HLOs: On day 27, the mature organoids were treated with bilirubin (1-10 mg/L), doxycycline (100 ng/mL; added 3 days prior to activate gene expression) and/or additionally with drugs such as hydrocortisone, dexamethasone, ketoconazole and mifepristone (1-2 μM for each) for 5 days and then harvested for downstream assays. […] Images were captured on the KEYENCE BZ-X710 Fluorescence Microscope (Keyence).

`C[C@]12CCC(=O)C=C1CC[C@@H]1[C@@H]2[C@@H](O)C[C@@]2(C)[C@H]1CC[C@]2(O)C(=O)CO` [hydrocortisone]: the “bilirubin conjugation (unconjugated vs conjugated bilirubin)” value with liver organoids [1] is on record as “decreased bilirubin conjugation ability”. For the same molecule, the UGT1A1 expression entry in the series with UGT1A1 is listed as “depressed”.

For the molecule `CC(=O)N1CCN(c2ccc(OCC3COC(Cn4ccnc4)(c4ccc(Cl)cc4Cl)O3)cc2)CC1` (stereo not drawn) [ketoconazole], the NRF2 expression entry in the series with NRF2 is given as “improved”. Further, the “bilirubin conjugation (unconjugated vs conjugated bilirubin)” value with liver organoids [1] is “improved conjugation and metabolism of bilirubin; also recorded: increased bilirubin conjugation”. Moreover, the UGT1A1 expression entry with UGT1A1 is on record as “elevated”.

For the molecule `CC#C[C@]1(O)CC[C@H]2[C@@H]3CCC4=CC(=O)CCC4=C3[C@@H](c3ccc(N(C)C)cc3)C[C@@]21C` [mifepristone], in the series on NRF2, the NRF2 expression result is listed as “improved”. Moreover, the “gene expression / enriched pathways” value in the series with liver organoids [2] was “enrichment of many genes involved in liver function”. The “bilirubin conjugation (unconjugated vs conjugated bilirubin)” value with liver organoids [1] is “improved conjugation and metabolism of bilirubin; also recorded: increased bilirubin conjugation”. The “silencing of the UGT1A1 gene (MECP2)” value in the series on UGT1A1 gene is “reverses this silencing”. The UGT1A1 expression entry with UGT1A1 is given as “elevated”.

For `C=CC1=C(C)/C(=C/c2[nH]c(Cc3[nH]c(/C=C4\NC(=O)C(C)=C4C=C)c(C)c3CCC(=O)O)c(CCC(=O)O)c2C)NC1=O` [bilirubin], the “organoid toxicity in CNS HLOs” value with CNS HLOs was “liver organoid toxicity”. Moreover, the CYP1A2 activity entry in the series on CYP1A2 (1 mg/L bilirubin-treated organoids, after omeprazole, vs untreated control (FIG. 1E)) is on record as “increased cytochrome activity”. For the same molecule, the “organoid morphology and intracellular bilirubin accumulation” value with liver organoids [3] was “significant morphological changes and intracellular accumulation of bilirubin”. Further, the “expression of CYP2E1, CYP7A1, MPR1, MRP3, PROX1, OATP2 (immunofluorescence)” value with liver organoids [4] is “expressed mature liver enzymes and transport proteins”. Further, the CYP3A4 activity result in the series on CYP3A4 (1 mg/L bilirubin-treated organoids, after rifampicin, vs untreated control (FIG. 1E)) is “increased cytochrome activity”.

For `C[C@H]1c2cccc(O)c2C(=O)C2=C(O)[C@]3(O)C(=O)C(C(N)=O)=C(O)[C@@H](N(C)C)[C@@H]3[C@@H](O)[C@@H]21` [doxycycline], the “gross morphology of mGULO organoids” value in the series on mGULO organoids is on record as “maintain their gross morphology”. Further, the CYP1A2 activity entry in the series on CYP1A2 (mGULO organoids, Dox plus low dose bilirubin, omeprazole insult (FIG. 2P)) is listed as “increased”. Further, the CYP3A4 activity entry in the series on CYP3A4 (mGULO organoids, Dox plus low dose bilirubin, rifampicin insult (FIG. 2P)) is listed as “increased”.

The values above are taken from patent US20240368556A1, “LIVER ORGANOID MODEL FOR HYPERBILIRUBINEMIA AND METHODS OF MAKING AND USING SAME” (CHILDREN’S HOSPITAL MEDICAL CENTER, priority 2021, published 2024).
